Results: patent EP0365089A2, “2-Aryl-5(3-methoxy-5-(hydroxypropylsulfonyl)-4-propoxyphenyl) tetrahydrothiophen and analogs” (MERCK & CO. INC., priority 1988, dated 1990)

Tests used:
[1] = target: T1, PAF binding to its specific receptor binding site on rabbit platelet plasma membranes (Oryctolagus cuniculus, UniProt G1TEI7); assay: Inhibition of 3H-PAF binding to platelet plasma membrane (isotopic labeling and filtration); details: for inhibition at 30000 µM: dose 30 mM; for inhibition at 30 µM: dose .03 mM
T1 construct: from tissue; host or cells: rabbit platelet plasma membranes
T1 sequence (G1TEI7 1-342): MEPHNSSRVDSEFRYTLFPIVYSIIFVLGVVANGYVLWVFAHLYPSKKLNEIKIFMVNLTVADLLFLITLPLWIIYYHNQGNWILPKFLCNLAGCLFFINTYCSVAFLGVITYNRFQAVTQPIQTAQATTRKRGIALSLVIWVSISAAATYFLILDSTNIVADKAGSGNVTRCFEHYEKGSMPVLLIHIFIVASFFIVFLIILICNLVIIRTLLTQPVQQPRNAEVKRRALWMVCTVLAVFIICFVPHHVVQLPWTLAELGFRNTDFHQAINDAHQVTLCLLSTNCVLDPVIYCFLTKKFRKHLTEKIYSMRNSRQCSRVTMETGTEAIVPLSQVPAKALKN
Method: In vitro, they inhibit PAF-induced functions in both the cellular and tissue levels by disturbing the PAF binding to its specific receptor site. The ability of a compound of formula (I) to inhibit the PAF binding to its specific receptor binding site on rabbit platelet plasma membranes was measured by an assay developed by us.
The inhibition of H^3-PAF binding to human or rabbit platelet plasma membrane by a PAF-antagonist of Formula (I) was determined by a method employing isotopic labeling and filtration techniques. Generally, a series of Tris-buffered solutions of the selected antagonist at predetermined concentrations were prepared. Each of these solutions contains 1 pmole of ^3H-PAF, a known amount of the test antagonist, and a sufficient amount of the pH 7.0 Tris-buffer solution (10mM Tris, 0.25% bovine serum albumin, and 10 mM MgC12 per ml water) to make the final volume of 1 ml. After adding into a set of test tubes each with 100 αg of the platelet plasma […] suspension and one of the Tris-buffer solutions described above, the resulting mixture in each test tube was incubated at 0 C for about one hour or until the reaction was complete. Two control samples, one of which (Ci) contains all the ingredients described above except the antagonist and the other (C2) contains C1 plus a 1000-fold excess of unlabeled PAF, were also prepared and incubated simultaneously with the test samples. After the incubation was completed, the contents of each test tube were filtered under vacuo through a Whatman GF/C fiberglass filter and the residue washed rapidly several times with a total of 20 ml cold (0°-5°C) Tris-buffer solution. Each washed residue was then suspended in 10 ml scintillation solution (Aquasol 2, New England Nuclear, Connecticut) and the radioactivity was counted in a Packard Tri-Carb 460CD Liquid Scintillation System. Defining the counts from a test sample as "Total binding with antagonist"; the counts from the control sample C1, as "Total binding C1"; and the counts from the control sample C2 as "non-specific binding C2", the percent inhibition of each test antagonist can be determined by the following equation: [formula] Specific binding =(Total binding C1)-(non-specific binding C2)

PAF = assay: PAF-antagonist activity, test not specified; details: ranking in words, no test named
[2] = system: PAF-induced symptoms including decreased arterial blood flow, increased vascular permeability and increased degranulation in rats; assay: Oral activity of PAF-antagonists in inhibiting PAF-induced symptoms in rats; type: in vivo; details: oral dose 1 mg/kg, male rats weighing about 190-220g
Method: • 1.) Fast rats overnight. • 2.) Weigh the rats the morning after fasting, • 3.) Suspend a test compound in 0.5% methylcellulose with 12 ounce hand homogenizer or a sonicator if necessary to yield a fine suspension. […] After the beginning of the PAF infusion as well as just before the PAF infusion, measure the following three parameters for each blood sample: • a) the arterial blood flow rate: determined by measuring the time to fill a pre-calibrated 14 µl capillary tube; • b) the vascular permeability: measured by calculating the increased hematocrit which results from loss of plasma from the circulation to extra-vascular spaces. • c) the circulatory degranulation: determined by assaying the increased plasma level of N-acetylglucosaminidase, a marker lysosomal enzyme. • 7.) Determine the percent change in each parameter of a blood sample at each post-PAF interval including the 30 minute interval, relative to the pre-PAF blood values. • 8.) Calculate the percent inhibition by the formula: % inhibition = [formula]

## CCCOc1c(C#N)cc([C@H]2CC[C@H](c3cc(OC)c(OC)c(OC)c3)S2)cc1OC (relative stereo) [3-cyano-4-propoxy-5-methoxyphenyl, trans-2-(3,4,5-trimethoxyphenyl)-5-(5-cyano-3-methoxy-4-propoxyphenyl)-tetrahydrothiophene]
[1]
  inhibition at 30000 µM: 27%

## CCOc1c(OC)cc([C@H]2CC[C@H](c3cc(OC)c(OC)c(OC)c3)S2)cc1C(=O)Nc1cccc(Cl)c1 (relative stereo) [(3-chlorophenyl-aminocarbonyl)phenyl, trans-2-(3,4,5-trimethoxyphenyl)-5-(3-methoxy-4-ethoxy-5-(3-chlorophenylaminocarbonyl)-phenyl)tetrahydrothiophene]
[1]
  inhibition at 30000 µM: 6%
PAF
  PAF-antagonist activity: most active

## CCCOc1c(OC)cc([C@H]2CC[C@H](c3cc(OC)c(OC)c(OC)c3)S2)cc1S(=O)(=O)CC(C)O (relative stereo) [Trans-2-(3,4,5-trimethoxyphenyl)-5-(3-methoxy-5-(2-hydroxypropylsulfonyl)-4-propoxyphenyl)-tetrahydrothiophene]
[1]; dose .003 mM
  inhibition at 3 µM: 57%
[1]
  inhibition at 30 µM: 89%
[2]
  %inhibition A = increased vascular permeability: 60%
  %inhibition B = increased degranulation: 62%
PAF
  PAF-antagonist activity: most active

## COc1cc(C2CCC(c3cc(OC)c(OC)c(OC)c3)S2)cc(OC)c1OC (centres unmarked) [same as Ar]
[1]
  inhibition at 30 µM: 69%

## COc1cc(C2CCC(c3cc(OC)c(OC)c(OC)c3)S2)cnc1OC (centres unmarked) [5,6-di-methoxy-3-pyridyl]
[1]; dose 1 mM
  inhibition at 1000 µM: 80%
[1]; dose 5 mM
  inhibition at 5000 µM: 96%
